{"source": "paper PMC10093836", "about": "“Stabilization of the Dimeric State of SARS-CoV-2 Main Protease by GC376 and Nirmatrelvir” (International Journal of Molecular Sciences, 2023)", "target": "SARS-CoV-2 Mpro dimer (Severe acute respiratory syndrome coronavirus 2, UniProt P0DTD1)", "test": "SAXS monomer-dimer equilibrium of Mpro in the presence of inhibitors"}
{"smiles": "CC(C)c1nc(CN(C)C(=O)N[C@H](C(=O)N[C@@H](Cc2ccccc2)C[C@H](O)[C@H](Cc2ccccc2)NC(=O)OCc2cncs2)C(C)C)cs1", "note": "[RTV, ritonavir]", "values": [{"measurement": "ΔCp of Mpro dimer dissociation", "setting": "Mpro alone 1.3 ± 0.4", "result": "4 ± 1", "unit": "kJ K^−1mol^−1"}, {"measurement": "ΔS^0 of Mpro dimer dissociation", "setting": "T0 = 298.15 K, Mpro alone −30 ± 10", "result": "−70 ± 50", "unit": "J K^−1mol^−1"}, {"measurement": "ΔH^0 of Mpro dimer dissociation", "setting": "T0 = 298.15 K, derived parameter of the fit, Mpro alone 21 ± 4", "result": "2.63 ± 1.2", "unit": "kcal/mol"}]}
